Assay results: patent US9404086B2, “Method for cell differentiation” (GE HEALTHCARE UK LIMITED, priority 2014, dated 2016)

B1: Wnt3a: growth factor reported to aid in DE differentiation, used in conjunction with Activin A (protein, UniProt P56704 19-352, looked up)
Protein Wnt-3a: SYPIWWSLAVGPQYSSLGSQPILCASIPGLVPKQLRFCRNYVEIMPSVAEGIKIGIQECQHQFRGRRWNCTTVHDSLAIFGPVLDKATRESAFVHAIASAGVAFAVTRSCAEGTAAICGCSSRHQGSPGKGWKWGGCSEDIEFGGMVSREFADARENRPDARSAMNRHNNEAGRQAIASHMHLKCKCHGLSGSCEVKTCWWSQPDFRAIGDFLKDKYDSASEMVVEKHRESRGWVETLRPRYTYFKVPTERDLVYYEASPNFCEPNPETGSFGTRDRTCNVSSHGIDGCDLLCCGRGHNARAERRREKCRCVFHWCCYVSCQECTRVYDVHTCK

Experiments:
Assay type in all cases: cell-based, human
[1] = tested on: hESC; assay: Flow cytometry analysis of differentiation markers at day 4 of DE differentiation; conditions: for differentiation to DE: supplementation of Activin A, compared with Activin A and DMSO
Procedure: Definitive endoderm formation: hESC were passaged onto the appropriate culture flasks or plates at 0.6×10^5 cells/cm^2 and cultured for 2 days. To initiate definitive endoderm differentiation hESC were washed once with PBS and cultured in RMPI 1640 medium (Life Technologies) supplemented with 100 ng/ml of Activin A (R&D Systems) and 0.25 to 2% of DMSO (Sigma). FBS (0.2%) was added after first 24 hours and cells were cultured for four days with media changed daily.
Cells cultured in 6 well plates were washed twice in PBS and treated with 0.25% trypsin-EDTA (Life Technologies) to obtain single cell suspensions. Trypsin was inactivated after 5 min of incubation by adding medium containing 10% FBS. Cells were counted, centrifuged at 300 g for 5 min, washed twice with PBS and subsequently fixed in 2% paraformaldehyde (USB). Following 15 min incubation at room temperature cells were washed in PBS and perm/wash buffer (PWB) (BD) and subsequently resuspended at 4×10^6 cells/ml in perm/wash buffer supplemented with 0.1 mg/ml human IgG (Sigma) and 10% serum from the species of secondary antibody (Life Technologies). Cells were incubated for 30 min at 4° C. and then 50 μl aliquots (2×10^5 cells) were transferred to individual 5 ml polystyrene round-bottom FACS assay tubes. For double staining of cells with OCT4 and SOX17, cells were stained in perm/wash buffer first with mouse anti-OCT4 (Cell Signalling) and incubated for 1 h at room temperature, following by two washes with PBS and incubation in perm/wash buffer with goat anti-mouse-FITC (Molecular Probes) and goat anti-SOX17-APC (R&D Systems). Following 1 h incubation at 4° C., samples were washed twice and resuspended in 0.2% FBS in PBS in a final volume of […]. Separate staining for OCT4 and SOX17 was performed analogously. Cells were analysed on a BD FACSCalibur flow cytometer and data analysed using CellQuest software.

[2] = tested on: hESC; assay: qRT-PCR analysis of differentiation markers at day 4 of DE differentiation
Procedure: Definitive endoderm formation: hESC were passaged onto the appropriate culture flasks or plates at 0.6×10^5 cells/cm^2 and cultured for 2 days. To initiate definitive endoderm differentiation hESC were washed once with PBS and cultured in RMPI 1640 medium (Life Technologies) supplemented with 100 ng/ml of Activin A (R&D Systems) and 0.25 to 2% of DMSO (Sigma). FBS (0.2%) was added after first 24 hours and cells were cultured for four days with media changed daily. Isolation of total cellular RNA was performed using an illustra RNAspin Mini RNA Isolation Kit (GE Healthcare) and the concentration of RNA in each sample measured on a NanoDrop 1000 spectrophotometer. 1 μg of extracted total RNA was reverse transcribed using High Capacity cDNA Reverse Transcription Kit (Applied Biosystems). TaqMan quantitative PCR was performed using unlabelled PCR primers and FAM-based probes (Applied Biosystems by Life Technologies) in conjunction with TaqMan Universal PCR Master Mix, No AmpErase UNG (Applied Biosystems). Concentrated TaqMan PCR Master Mix (2×) was combined with water and cDNA. The final concentration of Master Mix was achieved by addition of appropriate concentrations of primers/FAM probes diluted in water. Reactions were carried out on a 7900HT Fast Real-Time PCR System (Applied Biosystems). qRT-PCR cycling conditions were: 95° C. for 10 min, and subsequently 45 cycles of 95° C. for 10 sec and 60° C. for 1 min. Each sample was run in triplicate with GAPDH as a reference gene. Analysis of results was performed in SDS Software for the 7900HT Fast Real-Time PCR System. Relative quantification was calculated against GAPDH and B-Actin housekeeping genes and standard derivations report n=3 replicates from each sample.

[3] = tested on: hESC; assay: Immunofluorescence analysis of differentiation markers at day 4 of DE differentiation
Procedure: Definitive endoderm formation: hESC were passaged onto the appropriate culture flasks or plates at 0.6×10^5 cells/cm^2 and cultured for 2 days. To initiate definitive endoderm differentiation hESC were washed once with PBS and cultured in RMPI 1640 medium (Life Technologies) supplemented with 100 ng/ml of Activin A (R&D Systems) and 0.25 to 2% of DMSO (Sigma). FBS (0.2%) was added after first 24 hours and cells were cultured for four days with media changed daily. For detection of stage-specific markers, cells were grown and differentiated in 96 well plates (uClear black plate with clear flat bottom, Greiner). Cells were rinsed twice with PBS and fixed in 4% paraformaldehyde (USB) for 15 min at room temperature and then washed twice with PBS and blocked for 30 min at RT in 1% BSA (Life Technologies) and 0.1 mg/ml human IgG (Sigma) in perm/wash buffer (BD). Cells were subsequently stained for 2 hours at RT or overnight at 4° C. with primary rabbit anti-OCT4 (Cell Signaling), mouse and anti-SOX17 (Abcam) antibodies diluted in perm/wash buffer. Cells were subsequently washed several times with perm/wash buffer and incubated at 4° C. in the dark with goat anti-mouse-FITC and chicken anti-rabbit-Cy5 (Molecular probes) diluted 1:400 in perm/wash buffer. […]

[4] = tested on: hESC; assay: Differentiation of hESC-derived DE towards hepatic like cells (AFP day 12, ALB day 28); conditions: day 28 (hepatic like cells), with increasing concentrations of DMSO during DE stage
Procedure: Definitive endoderm formation: hESC were passaged onto the appropriate culture flasks or plates at 0.6×10^5 cells/cm^2 and cultured for 2 days. To initiate definitive endoderm differentiation hESC were washed once with PBS and cultured in RMPI 1640 medium (Life Technologies) supplemented with 100 ng/ml of Activin A (R&D Systems) and 0.25 to 2% of DMSO (Sigma). FBS (0.2%) was added after first 24 hours and cells were cultured for four days with media changed daily. Hepatic specification: hESC-derived definitive endoderm cells were washed once with PBS and cultured in KO-DMEM medium and 2% KOSR supplemented with 1 mM L-glutamine, NEAA (all from Life Technologies), B-Mercaptoethanol (Sigma), 30 ng/ml BMP2, 10 ng/ml FGF4, 0.5% DMSO for 5 days with BMP4. […] Isolation of total cellular RNA was performed using an illustra RNAspin Mini RNA Isolation Kit (GE Healthcare) and the concentration of RNA in each sample measured on a NanoDrop 1000 spectrophotometer. […] TaqMan quantitative PCR was performed using unlabelled PCR primers and FAM-based probes (Applied Biosystems by Life Technologies) in conjunction with TaqMan Universal PCR Master Mix, No AmpErase UNG (Applied Biosystems). […] Relative quantification was calculated against GAPDH and B-Actin housekeeping genes and standard derivations report n=3 replicates from each sample.

[5] = 0.5% and 1% DMSO added to Activin A containing medium, day 4, relative to control cells treated with Activin A alone
[6] = increasing concentrations of DMSO with Activin A, day 4

Row | Molecule | OCT4 expressing cells [1, 5] | SOX17 expressing cells [1, 5] | OCT4 expression ([1]; increasing concentrations of DMSO with Activin A, day 4, flow cytometry confirmation) | expression of pluripotency genes ([2]; 0.5% to 0.6% DMSO added to Activin A-based medium during definitive endoderm derivation) | DE differentiation compared with established prior art method (Hay et al) ([2]; DMSO method day 4 (KCGE D4) versus Hay D5) | CXCR4 expression [2, 6] | GATA4 expression [2, 6] | OCT4 expression [2, 6] | SOX17 expression [2, 6] | OCT4 expression ([3]; increasing concentrations of DMSO from 0% to 2% with Activin A) | DMSO concentration at which SOX 17 staining was maximum ([3]; with Activin A) | ALB expression [4] | differentiation to DE [1]
1 | C[S+](C)[O-] [DMSO, dimethyl sulfoxide] | decrease | increase | down regulation | rapid down regulation | significant improvement | up regulation | up regulation | significant dose dependent decrease | up regulation | down regulation | 0.6% | increased | 
2 | FGF2: growth factor reported to aid in DE differentiation, used in conjunction with Activin A |  |  |  |  |  |  |  |  |  |  |  |  | inferior
3 | B1 |  |  |  |  |  |  |  |  |  |  |  |  | inferior
